Experiment: Membrane permeability and transport properties (Caco-2)
Assay type: in vitro ADME
Conditions: human, pH 7.4, Caco-2, 10 μM
Description: • 1. Caco-2 cells (ATCC) • 2. HEPES (Solarbio 804D049), penicillin/streptomycin (Solarbio 20200109), and PBS (Solarbio 20200620) • 3. Fetal Bovine Serum (FBS) (Sigma WXBD0055V), lucifer yellow (Sigma MKCJ3738), and NaHCO3 (Sigma SLBZ4647) • 4. Hank's balanced salt solution (HBSS) (Gibco 2085528), non-essential amino acid (NEAA) (Gibco 2211548), and Trypsin/EDTA (Gibco 2120732) • 5. High glucose DMEM (Corning 20319014) • 6. HTS Transwell-96 Well Permeable (Corning, 3391) • 7. Resistance detector (Millipore, Millicell® ERS-2) • 8. Cellometer® Vision (Nexcelom Bioscience) • 9. Infinite 200 PRO microplate reader (Tecan, Infinite M200PRO) • 10. Positive control compound metoprolol (Sinopharm 100084-201403), erythromycin (MCE 84550), and cimetidine (Sinopharm 100158-201406) • 11. ABI QTrap 5500 liquid chromatography-mass spectrometry system
• 1. […] Evaluation of integrity of monolayer cell membrane • 1) The cells fused and differentiated after 14 days of culture and were ready for a transport experiment. • 2) The resistance of the monolayer membrane was measured using a resistance detector. The resistance of each well was recorded. • 3) After measurement, the Transwell culture plate was re-incubated. • 4) The TEER value was calculated: […]

C[C@]12C=CC(=O)C=C1CC[C@@H]1[C@@H]2[C@@H](O)C[C@@]2(C)[C@H]1C[C@H]1O[C@@H](c3ccc(Cc4cc(N)c5c(c4)CCO5)cc3)O[C@]12C(=O)CO [Compound 009, (6aR,6bS,7S,8aS,8bS,10R,11aR,12aS,12bS)-10-(4-((7-amino-2,3-dihydrobenzofuran-5-yl)methyl)phenyl)-7-hydroxy-8b-(2-hydroxyacetyl)-6a,8a-dimethyl-6a,6b,7,8,8a,8b,11a,12,12a,12b-decahydro-1H-naphtho[2′,1′:4,5]indeno[1,2-d][1,3]dioxolan-4(2H)-one]
Papp A→B at 2 h, 10 μM (apical to basal): 0.73 ×10⁻⁶ cm/s | Papp B→A at 2 h, 10 μM (basal to apical): 3.86 ×10⁻⁶ cm/s

Reference: US20240307415A1, “STEROID COMPOUND, AND PHARMACEUTICAL COMPOSITION THEREOF AND USE THEREOF” (JIANGSU SIMCERE PHARMACEUTICAL CO., LTD., priority 2021, published 2024)
